# Literature values, collected in US20060275294A1, “METHOD OF PREVENTION AND TREATMENT OF AGING, AGE-RELATED DISORDERS AND/OR AGE-RELATED MANIFESTATIONS INCLUDING ATHEROSCLEROSIS, PERIPHERAL VASCULAR DISEASE, CORONARY ARTERY DISEASE, OSTEOPOROSIS, ARTHRITIS, TYPE 2 DIABETES, DEMENTIA, ALZHEIMERS DISEASE AND CANCER” (priority 2002, published 2006).
# Like-named read-outs stand apart in the source and are kept apart here.
# Tests used:
# Jurkat T cells = details: cited from earlier work
# Male Wistar rats [1] = details: rats; cited from earlier work
# MM cells = details: cited from earlier work
# [2] = tested on: in-patients with advanced (stage III) Huntington's disease; details: 6 months; cited from earlier work
# Wistar rats = details: cited from earlier work
# IL-6 = details: in vitro; cited from earlier work
# [3] = tested on: subjects with type 2 diabetes associated with osteopenia; details: 200 mg/day for 2 weeks every 3 months, 1 yr; cited from earlier work
# [4] = biological target: fAbeta(1-40) and fAbeta(1-42) (Homo sapiens, UniProt P05067); details: cited from earlier work; for fAbeta formation from Abeta(1-40) and Abeta(1-42): in vitro
# [5] = tested on: aortic strips isolated from virgin and late pregnant Sprague-Dawley rats; details: cited from earlier work; for increase in active stress: 10^-5 M, endothelium-intact strips; for enhancement of Phe contraction: 1,000 pg/ml
# Male Wistar rats [6] = details: administered to every diet group; cited from earlier work
# [7] = in vivo, sc; cited from earlier work
# STAT3 and ERK1/2 = details: cited from earlier work
# myeloma cell lines = details: cited from earlier work
# [8] = tested on: human endothelial cells (EC); details: 100 ug/ml for DHA, EPA; 24 h supernatants, ELISA; cited from earlier work
# Yorkshire swine = details: 20 mg/kg/day, 5 months, cited from earlier work
# [9] = tested on: human microvascular endothelial cells (EC); details: cited from earlier work
# mice = details: mouse, in vivo; cited from earlier work
# [10] = tested on: cultured human astrocytes; details: cited from earlier work
# [11] = tested on: human prostate carcinoma PC-3 cell line; details: cited from earlier work
# [12] = tested on: rats with adjuvant arthritic chronic pain; details: cited from earlier work
# [13] = tested on: rat primary astrocytes, microglia, and macrophages; details: cited from earlier work
# JB6 cell = details: cited from earlier work
# [14] = tested on: IL-1 beta, IL-6, and TNF-alpha; details: cited from earlier work
# [15] = tested on: three human pancreatic cancer cell types; details: cited from earlier work
# rats = details: synthetic diet for 21 days; cited from earlier work
# IKKbeta = IKKbeta (Homo sapiens, UniProt O14920); details: cited from earlier work
# [16] = tested on: rat vascular smooth muscle cells; details: cited from earlier work
# Rat VSMC = details: 50 microM, IL-6 stimulated; cited from earlier work
# STAT1 and STAT3 = details: cited from earlier work
# [17] = tested on: Primary adipocytes from pig subcutaneous adipose tissue; details: cited from earlier work
# Chain of fAbeta(1-40) and fAbeta(1-42) (P05067 672-711 limits assumed): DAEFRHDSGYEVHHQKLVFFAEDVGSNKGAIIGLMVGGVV
# Chain of IKKbeta (O14920 whole entry, species assumed): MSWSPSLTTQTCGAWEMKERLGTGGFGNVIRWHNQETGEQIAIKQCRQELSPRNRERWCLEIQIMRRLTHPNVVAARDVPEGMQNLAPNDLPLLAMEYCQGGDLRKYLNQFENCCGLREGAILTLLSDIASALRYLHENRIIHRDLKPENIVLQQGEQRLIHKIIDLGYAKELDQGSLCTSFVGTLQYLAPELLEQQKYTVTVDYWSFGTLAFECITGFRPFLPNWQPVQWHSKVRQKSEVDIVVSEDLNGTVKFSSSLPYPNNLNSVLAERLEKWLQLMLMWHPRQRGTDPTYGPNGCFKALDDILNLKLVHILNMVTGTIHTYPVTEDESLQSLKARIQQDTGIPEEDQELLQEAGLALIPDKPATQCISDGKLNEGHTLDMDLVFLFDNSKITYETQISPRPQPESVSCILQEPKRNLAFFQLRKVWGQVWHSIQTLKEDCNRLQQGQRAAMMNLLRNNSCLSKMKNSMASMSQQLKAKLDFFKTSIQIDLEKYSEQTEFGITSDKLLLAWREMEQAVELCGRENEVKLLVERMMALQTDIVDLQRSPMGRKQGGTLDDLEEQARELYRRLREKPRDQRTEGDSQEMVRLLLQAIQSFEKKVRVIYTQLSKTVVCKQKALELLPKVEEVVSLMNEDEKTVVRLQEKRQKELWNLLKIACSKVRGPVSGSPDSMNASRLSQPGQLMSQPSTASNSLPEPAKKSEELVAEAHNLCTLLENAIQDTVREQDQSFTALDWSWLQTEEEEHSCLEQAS
molecule,measurement,setting,value
"Oc1cc(O)c2c(c1)OC(c1ccc(O)c(O)c1)C(O)C2 (single isomer, unassigned; (+)) [CT, (+)-catechin]",PMA-triggered increase in cell oxidants,"Jurkat T cells; 1.7-17.2 microM, 24 h preincubation",prevented
same,PMA-induced NF-kappaB binding activity and transactivation of IL-2,Jurkat T cells; pretreatment,decreased
Oc1cc(O)c2c(c1)O[C@H](c1cc(O)c(O)c(O)c1)[C@H](O)C2 [Epigallocatechin],myocardial ischemia reperfusion injury,Male Wistar rats [1],attenuates
"COc1cc(/C=C/C(=O)CC(=O)/C=C/c2ccc(O)c(OC)c2)ccc1O [curcumin, diferuloylmethane]","adhesion to bone marrow stromal cells, cytokine secretion, viability of cells",MM cells; ex vivo treatment of patient MM cells,decrease
same,expression of NF-kappaB-regulated gene products incl. interleukin-6,MM cells; human MM cells,down-regulated
"CC/C=C\C/C=C\C/C=C\C/C=C\C/C=C\CCCC(=O)OCC [ethyl-EPA, ethyl-ester of eicosapentaenoic acid]",orofacial component of the Unified Huntington's Disease Rating Scale,[2],improved
"C[C@@H]1O[C@@H](OC[C@H]2O[C@@H](Oc3c(-c4ccc(O)c(O)c4)oc4cc(O)cc(O)c4c3=O)[C@H](O)[C@@H](O)[C@@H]2O)[C@H](O)[C@H](O)[C@H]1O [rutin, quercetin-3-O-glucose rhamnose]",mean plasma concentration of active metabolites (quercetin and isorhamnetin),"Wistar rats; OVX+R rats, HPLC",9.46 ± 1 µM
same,uterotrophic activity,"Wistar rats; rat, in vivo",devoid of any uterotrophic activity
"C[C@]12CC[C@@H]3c4ccc(O)cc4CC[C@H]3[C@@H]1CC[C@@H]2O [estradiol, 17beta-estradiol]",IL-6 protein and mRNA production,IL-6,inhibits
CC(O)(P(=O)(O)O)P(=O)(O)O [etidronate],change in intima-media thickness (mean±SE),[3],−0.038±0.011 mm
"CC(Cc1ccc(O)c(O)c1)C(C)Cc1ccc(O)c(O)c1 (stereo not shown) [NDGA, Nordihydroguaiaretic acid]",fAbeta formation from Abeta(1-40) and Abeta(1-42),[4],inhibit
CNC[C@H](O)c1cccc(O)c1 [phenylephrine],increase in active stress,[5]; pregnant rats,4.2±0.3 ×104 N/m2
same,increase in active stress,[5]; virgin rats,5.1±0.3 ×104 N/m2
COc1ccc2c(c1)c(CC(=O)O)c(C)n2C(=O)c1ccc(Cl)cc1 [Indomethacin],inflammatory process in adjuvant arthritis,Male Wistar rats [6],strong inhibitory effect
IL-6: interleukin-6 cytokine,enhancement of Phe contraction,[5]; pregnant rats,10.6±0.7 ×104 N/m2
same,enhancement of Phe contraction,[5]; virgin rats,7.5±0.4 ×104 N/m2
same,adverse effects of subcutaneous administration,[7],"cardiac arrhythmias, hepatotoxicity"
Cn1cncc1[C@@](N)(c1ccc(Cl)cc1)c1ccc2c(c1)c(-c1cccc(Cl)c1)cc(=O)n2C [R115777],phosphorylation of STAT3 and ERK1/2 induced by IL-6,STAT3 and ERK1/2; 10 and 5 microM,partially blocked
same,phosphorylation of STAT3 and ERK1/2 induced by IL-6,STAT3 and ERK1/2; 15 microM,totally blocked
same,growth of three myeloma cell lines,myeloma cell lines,significant and dose-dependent growth inhibition
same,apoptosis,myeloma cell lines; myeloma cells,significant and time-dependent apoptosis
CCCCC/C=C\C/C=C\C/C=C\C/C=C\CCCC(=O)O [Arachidonic acid],production of IL-6 by unstimulated or stimulated EC,[8],ineffective
"CC(O)(P(=O)(O)O)P(=O)(O)O [EHDP, ethane-1-hydroxy-1,1-diphosphonate]","extent of lesions, ratio of intima to media",Yorkshire swine; vs HL diet only,significantly less
same,lesion calcium,Yorkshire swine,significantly less
same,ratio of lipid-rich necrotic debris area to area of media,Yorkshire swine,significantly smaller
O=P([O-])(O)C(NC1CCCCCC1)P(=O)([O-])O.[Na+].[Na+] [incadronate disodium],activation of NF-kappaB and AP-1 and up-regulation of VEGF mRNA,[9]; AGE-exposed EC,significantly prevented
same,AGE-induced increase in DNA synthesis and tube formation,[9],completely inhibit
C=C(CC[C@]12O[C@H](C(=O)O)[C@@](O)(C(=O)O)[C@](C(=O)O)(O1)[C@H](OC(=O)/C=C/[C@@H](C)C[C@@H](C)CC)[C@H]2O)[C@@H](OC(C)=O)[C@H](C)Cc1ccccc1 [squalestatin],anti-inflammatory effect,mice,did not have any anti-inflammatory effect
"CCCC(=O)O[C@@H]1[C@@H](C)[C@@]2(O)[C@@H](C=C(CO)C[C@]3(O)C(=O)C(C)=C[C@@H]23)[C@@H]2C(C)(C)[C@]12OC(=O)CCC [PDBu, Phorbol 12, 13-dibutyrate]",increase of secretion of APPalpha over control,[10],2-3 fold
CN(C)CCCn1cc(C2=C(c3c[nH]c4ccccc34)C(=O)NC2=O)c2ccccc21 [GF109203X],PDBu-increased secretion of APPalpha,[10],blocked
"O=C(OC[C@H]1O[C@@H](OC(=O)c2cc(O)c(O)c(OC(=O)c3cc(O)c(O)c(O)c3)c2)[C@H](OC(=O)c2cc(O)c(O)c(OC(=O)c3cc(O)c(O)c(O)c3)c2)[C@@H](OC(=O)c2cc(O)c(O)c(OC(=O)c3cc(O)c(O)c(O)c3)c2)[C@@H]1OC(=O)c1cc(O)c(O)c(OC(=O)c2cc(O)c(O)c(O)c2)c1)c1cc(O)c(O)c(OC(=O)c2cc(O)c(O)c(O)c2)c1 [TA, tannic acid]",fAbeta formation from Abeta(1-40) and Abeta(1-42),[4],dose-dependently inhibited
same,EC50,"[4]; pH 7.5, 37 degrees C, read-out: effective concentrations (EC50) for formation, extension and destabilization of fAbetas",< 0.1 µM
C=C(C)[C@@H]1CC=C(C(=O)O)CC1 [perillic acid],"IL-6- and OM-mediated effects (growth, resistance to etoposide and cisplatin)",[11],inhibited
"CC(C)Oc1ccc2c(=O)c(-c3ccccc3)coc2c1 [ipriflavone, 7-isopropoxyisoflavone]",analgesic effects,"[12]; 100 mg/kg/day oral, 2 weeks after start",Analgesic effects were observed
same,"synovitis, periosteal new bone formation and bone destruction","[12]; 3 weeks, females",improved
O=C([O-])Cc1ccccc1.[Na+] [sodium phenylacetate],LPS-mediated activation of NF kappa B,[13]; astrocytes,Inhibition
same,"LPS-induced expression of TNF-alpha, IL-1beta, and IL-6","[13]; rat primary astrocytes, microglia, macrophages",inhibited
same,LPS and cytokine-mediated production of NO and expression of iNOS,[13]; rat primary astrocytes,inhibit
"S=C=NCCc1ccccc1 [PEITC, phenethyl isothiocyanate]",cell transformation,JB6 cell,inhibited cell transformation
CO[C@H]1[C@@H](OC)C[C@H](C)[C@@H](OC)C2=CC(=O)C=C(NC(=O)/C(C)=C/C=C\[C@H](OC)[C@@H](OC(N)=O)/C(C)=C/[C@@H]1C)C2=O [herbimycin A],"LPS-induced increase in IL-1 beta, IL-6, and TNF-alpha mRNA levels",[14]; 1.7 microM,completely or more than 80% blocked
same,LPS activation of NF-kappa B,[14],reduced
same,LPS-induced IL-6 protein synthesis and IL-6 bioactivity,[14],reduced to baseline levels
same,IC50,"[15]; three cell lines, read-out: mean IC(50) proliferation",1.71 µM
vitamin E,endotoxin induced IL-6 concentration,rats,significantly lower
"O=P(O)(O)O[C@H]1[C@H](OP(=O)(O)O)[C@@H](OP(=O)(O)O)[C@H](OP(=O)(O)O)[C@@H](OP(=O)(O)O)[C@H]1OP(=O)(O)O [InsP6, inositol hexaphosphate]",cell transformation,JB6 cell,inhibited
Oc1ccc(C=Cc2cc(O)cc(O)c2)cc1 [resveratrol],activation of IKKbeta,IKKbeta,inhibit or suppress
same,cell transformation,JB6 cell,inhibited cell transformation
Cc1ccc(NC(=O)c2ccc(CN3CCN(C)CC3)cc2)cc1Nc1nccc(-c2cccnc2)n1 [Gleevec],inhibition of proliferation,[15],ineffective
CCOc1nc2cccc(C(=O)O)c2n1Cc1ccc(-c2ccccc2-c2nnn[nH]2)cc1 [CV11974],expression of IL-6 mRNA induced by Ang II,[16],completely blocked
Lavendustin,inhibition of proliferation,[15],ineffective
N#C/C(=C/c1ccc(O)c(O)c1)C(=O)NCc1ccccc1 [AG490],DNA synthesis,Rat VSMC,near complete inhibition
same,STAT 3 activation and MCP-1 production,Rat VSMC,partially inhibited
same,CuLDL-induced enhancement of STAT1 and STAT3 Tyr-phosphorylation and DNA-binding activity,STAT1 and STAT3,markedly prevented
"adiponectin: adiponectin (protein, UniProt Q15848 19-244, looked up) Adiponectin: ETTTQGPGVLLPLPKGACTGWMAGIPGHPGHNGAPGRDGRDGTPGEKGEKGDPGLIGPKGDIGETGVPGAEGPRGFPGIQGRKGEPGEGAYVYRSAFSVGLETYVTIPNMPIRFTKIFYNQQNHYDGSTGKFHCNIPGLYYFAYHITVYMKDVKVSLFKKDKAMLFTYDQYQENNVDQASGSVLLHLEVGDQVWLQVYGEGERNGLYADNDNDSTFTGFLLYHDTN",NF-kappaB activation and induction of IL-6 expression by LPS,"[17]; 30 microg/ml, LPS 10 microg/ml",suppressed
same,PPARgamma2 mRNA,[17],upregulation
